Test results taken from patent US20220401662A1, “ACOUSTIC NEBULISER FOR DELIVERY OF ACTIVE AGENTS” (Royal Melbourne Institute of Technology, priority 2020, published 2022).

Assay: human clinical trial of lung delivery by inhalation of [99mTc]DTPA aerosol from the nebuliser
Format: in vivo
Details: for Left lung dose / Right lung dose / Total lung dose: inhalation via described nebuliser, unadjusted
Excerpt: Nebulisers in accordance with the described embodiments have been subject to human clinical trials to determine efficiency of delivery of active agents to the lungs by inhalation using Technetium-99m DTPA aerosol ([^99mTc]DTPA aerosol).

Left lung dose (Volunteer 1): 7.15 MBq | Right lung dose (Volunteer 1): 8.25 MBq | Total lung dose (Volunteer 1): 15.4 MBq | Left lung dose (Volunteer 2): 25.2 MBq | Right lung dose (Volunteer 2): 27.1 MBq | Total lung dose (Volunteer 2): 52.3 MBq | Left lung dose (Volunteer 3): 22.2 MBq | Right lung dose (Volunteer 3): 21.9 MBq | Total lung dose (Volunteer 3): 44.1 MBq | Left lung dose (Volunteer 4): 23.3 MBq | Right lung dose (Volunteer 4): 26.6 MBq | Total lung dose (Volunteer 4): 49.9 MBq
Substance: Technetium-99m DTPA [[^99mTc]DTPA aerosol]
efficiency of delivery to the lungs by inhalation (human clinical trials, initial results): effective delivery of nebulised active agent to the target tissue
